Test system: KRAS-mutant PDC multicell tumor spheroid viability
Test: Anticancer human tumor 521955-158-R2-J5-PDC patient-derived pancreatic carcinoma cell line growth inhibition [KRAS2]
Details: for IC50: curve of first compound; for viability, T/C: stronger effect = lower value
In short: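 KRAS-mutant tumor cells were grown as spheroids with HUVEC endothelial cells and human MSCs as stroma. Targeted agents were tested alone and with KRAS pathway inhibitors. Doses started at or near clinical Cmax, or 10 microM, descending half-log.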

[1] = second compound 0.0316 µM, first compound 0.0316 µM
[2] = second compound 0.0316 µM, first compound 0.1 µM
[3] = second compound 0.1 µM, first compound 0.0316 µM
[4] = second compound 0.1 µM, first compound 0.1 µM
[5] = second compound 0.316 µM, first compound 0.0316 µM
[6] = second compound 0.316 µM, first compound 0.1 µM
[7] = second compound 1 µM, first compound 0.0316 µM
[8] = second compound 1 µM, first compound 0.1 µM
[9] = second compound 3.16 µM, first compound 0.0316 µM
[10] = second compound 3.16 µM, first compound 0.1 µM
[11] = second compound 0.0316 µM, first compound 0.316 µM
[12] = second compound 0.0316 µM, first compound 1 µM
[13] = second compound 0.0316 µM, first compound 3.16 µM
[14] = second compound 0.0316 µM, first compound 10 µM
[15] = second compound 0.1 µM, first compound 0.316 µM
[16] = second compound 0.1 µM, first compound 1 µM
[17] = second compound 0.1 µM, first compound 3.16 µM
[18] = second compound 0.1 µM, first compound 10 µM
[19] = second compound 0.316 µM, first compound 0.316 µM
[20] = second compound 0.316 µM, first compound 1 µM
[21] = second compound 0.316 µM, first compound 3.16 µM
[22] = second compound 0.316 µM, first compound 10 µM
[23] = second compound 1 µM, first compound 0.316 µM
[24] = second compound 1 µM, first compound 1 µM
[25] = second compound 1 µM, first compound 3.16 µM
[26] = second compound 1 µM, first compound 10 µM
[27] = second compound 3.16 µM, first compound 0.316 µM
[28] = second compound 3.16 µM, first compound 1 µM
[29] = second compound 3.16 µM, first compound 3.16 µM
[30] = second compound 3.16 µM, first compound 10 µM
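Note: viability read after seven days of drug exposure.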

| SMILES | IC50 (second compound 0.0316 µM) [nM] | IC50 (second compound 0.1 µM) [nM] | IC50 (second compound 0.316 µM) [nM] | IC50 (second compound 1 µM) [nM] | IC50 (second compound 3.16 µM) [nM] | viability, T/C [1] [%] | viability, T/C [2] [%] | viability, T/C [3] [%] | viability, T/C [4] [%] | viability, T/C [5] [%] | viability, T/C [6] [%] | viability, T/C [7] [%] | viability, T/C [8] [%] | viability, T/C [9] [%] | viability, T/C [10] [%] | viability, T/C [11] [%] | viability, T/C [12] [%] | viability, T/C [13] [%] | viability, T/C [14] [%] | viability, T/C [15] [%] | also measured |
| --- | --- | --- | --- | --- | --- | --- | --- | --- | --- | --- | --- | --- | --- | --- | --- | --- | --- | --- | --- | --- | --- |
| CC(C)n1nc(-c2ccc3oc(N)nc3c2)c2c(N)ncnc21 + C=CC(=O)N1CCN(c2nc(OCC3CCCN3C)nc3c2CCN(c2cccc4cccc(C)c24)C3)CC1CC#N | 9.53 | 6.8 | 6.39 | 3.33 | < 0.316 | 36.9 | 25.6 | 31.5 | 24.3 | 27 | 22.7 | 23.3 | 18.3 | 17 | 14.5 |  |  |  |  |  | viability, T/C (second compound 0.0316 µM, first compound 0.000316 µM): 105%; viability, T/C (second compound 0.0316 µM, first compound 0.001 µM): 97.1%; viability, T/C (second compound 0.0316 µM, first compound 0.00316 µM): 68.1%; viability, T/C (second compound 0.0316 µM, first compound 0.01 µM): 49.6%; viability, T/C (second compound 0.1 µM, first compound 0.000316 µM): 94.6%; viability, T/C (second compound 0.1 µM, first compound 0.001 µM): 90.7%; viability, T/C (second compound 0.1 µM, first compound 0.00316 µM): 62.5%; viability, T/C (second compound 0.1 µM, first compound 0.01 µM): 43.6%; viability, T/C (second compound 0.316 µM, first compound 0.000316 µM): 92.6%; viability, T/C (second compound 0.316 µM, first compound 0.001 µM): 90.6%; viability, T/C (second compound 0.316 µM, first compound 0.00316 µM): 59%; viability, T/C (second compound 0.316 µM, first compound 0.01 µM): 44.6%; viability, T/C (second compound 1 µM, first compound 0.000316 µM): 76.5%; viability, T/C (second compound 1 µM, first compound 0.001 µM): 70.2%; viability, T/C (second compound 1 µM, first compound 0.00316 µM): 49.1%; viability, T/C (second compound 1 µM, first compound 0.01 µM): 33.5%; viability, T/C (second compound 3.16 µM, first compound 0.000316 µM): 33.7%; viability, T/C (second compound 3.16 µM, first compound 0.001 µM): 17.6%; viability, T/C (second compound 3.16 µM, first compound 0.00316 µM): 25.6%; viability, T/C (second compound 3.16 µM, first compound 0.01 µM): 7.26% |
| CC1(C)CCC(CN2CCN(c3ccc(C(=O)NS(=O)(=O)c4ccc(NCC5CCOCC5)c([N+](=O)[O-])c4)c(Oc4cnc5[nH]ccc5c4)c3)CC2)=C(c2ccc(Cl)cc2)C1 + C=CC(=O)N1CCN(c2nc(OCC3CCCN3C)nc3c2CCN(c2cccc4cccc(C)c24)C3)CC1CC#N | 4890 | 4630 | 2010 | 1680 | < 31.6 | 108 | 101 | 97.7 | 100 | 88.5 | 97.4 | 85.6 | 89.5 | 10.6 | 8.43 | 105 | 111 | 77.7 | 4.79 | 99.9 | viability, T/C [16]: 104%; viability, T/C [17]: 72.9%; viability, T/C [18]: 4.13%; viability, T/C [19]: 100%; viability, T/C [20]: 103%; viability, T/C [21]: 19.3%; viability, T/C [22]: 4.17%; viability, T/C [23]: 84.6%; viability, T/C [24]: 81.7%; viability, T/C [25]: 11.3%; viability, T/C [26]: 1.35%; viability, T/C [27]: 5.9%; viability, T/C [28]: 1.39%; viability, T/C [29]: 0.22%; viability, T/C [30]: 0.27% |
| COc1cc(Nc2ncc3c(n2)-c2ccc(Cl)cc2C(c2c(F)cccc2OC)=NC3)ccc1C(=O)O + C=CC(=O)N1CCN(c2nc(OCC3CCCN3C)nc3c2CCN(c2cccc4cccc(C)c24)C3)CC1CC#N | < 31.6 | < 31.6 | < 31.6 | < 31.6 | < 31.6 | 41.5 | 33.7 | 51.1 | 28.1 | 48.5 | 27.2 | 28.8 | 28.7 | 1.52 | 1.29 | 50.5 | 46.2 | 38.5 | 40.5 | 38.4 | viability, T/C [16]: 36.3%; viability, T/C [17]: 38.9%; viability, T/C [18]: 38.2%; viability, T/C [19]: 31.6%; viability, T/C [20]: 38.8%; viability, T/C [21]: 33.8%; viability, T/C [22]: 42.2%; viability, T/C [23]: 29.1%; viability, T/C [24]: 27.7%; viability, T/C [25]: 26.9%; viability, T/C [26]: 32%; viability, T/C [27]: 0.17%; viability, T/C [28]: 6.1%; viability, T/C [29]: 1.44%; viability, T/C [30]: 0.25% |
| COc1cc2nccc(Oc3ccc(NC(=O)C4(C(=O)Nc5ccc(F)cc5)CC4)cc3)c2cc1OC + C=CC(=O)N1CCN(c2nc(OCC3CCCN3C)nc3c2CCN(c2cccc4cccc(C)c24)C3)CC1CC#N | 8200 | 7660 | 6600 | 2680 | < 31.6 | 111 | 112 | 105 | 108 | 89.9 | 113 | 86.2 | 95 | 19.4 | 26.7 | 126 | 124 | 94.6 | 40.7 | 118 | viability, T/C [16]: 116%; viability, T/C [17]: 94.1%; viability, T/C [18]: 36.7%; viability, T/C [19]: 108%; viability, T/C [20]: 97.9%; viability, T/C [21]: 82.7%; viability, T/C [22]: 31.7%; viability, T/C [23]: 89.7%; viability, T/C [24]: 81.9%; viability, T/C [25]: 44.7%; viability, T/C [26]: 14.9%; viability, T/C [27]: 17.7%; viability, T/C [28]: 4.13%; viability, T/C [29]: 0.96%; viability, T/C [30]: 0.26% |

From PubChem BioAssay AID1963871 (Molecular Pharmacology Branch, DTP, NCI, 2024)
